From US20240091210A1, “USE OF 5-[[4-[2-[5-ACETYLPYRIDIN-2-YL]ETHOXY]BENZYL]-1,3-THIAZOLIDINE-2,4-DIONE AND ITS SALTS” (Minoryx Therapeutics S.L., priority 2018, published 2024)
pIC50: −log10 of the molar value.

How the values were obtained:
[1] = target: mitochondrial pyruvate carrier (MPC) (Homo sapiens (Human), UniProt O95563+Q9Y5U8); test: BRET assay of MPC inhibitory activity in HEK cells; format: cell-based; conditions: HEK cells expressing MPC2-Rluc8 and MPC1-Venus; read-out: IC50 (MPC inhibition, BRET)
Chain of mitochondrial pyruvate carrier (MPC) (Q9Y5U8 whole entry, the tested form may be a part): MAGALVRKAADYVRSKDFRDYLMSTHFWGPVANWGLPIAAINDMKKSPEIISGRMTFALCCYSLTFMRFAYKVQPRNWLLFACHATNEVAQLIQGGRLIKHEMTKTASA
Chain of mitochondrial pyruvate carrier (MPC) (O95563 whole entry, the tested form may be a part): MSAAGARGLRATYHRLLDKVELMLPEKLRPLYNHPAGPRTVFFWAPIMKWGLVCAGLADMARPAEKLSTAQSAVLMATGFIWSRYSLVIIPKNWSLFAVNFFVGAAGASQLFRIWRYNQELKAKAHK
Protocol: The MPC is a heterodimer composed of two subunits, MPC1 and MPC2. MPC1 and MPC2 interact to form an active carrier. In the assay, MPC2 was fused to Rluc8 (Donor) and MPC1 to Venus (Acceptor). These chimeric proteins were stably expressed in HEK cells. BRET activity was measured following addition of coelenterazine in the culture medium. Coelenterazine enters into cells and in contact with luciferase Rluc8 emits light, which activates the emission of fluorescence by the Acceptor, provided the distance between the Donor and Acceptor is <[…]. If the distance between Donor and Acceptor is >[…], no BRET activity is measured. The level of BRET activity reflects a change in the conformation of the MPC: it is high when the carrier is in a closed conformation, low when the carrier is at rest and intermediary when it transports pyruvate. In this case, the BRET activity is the mean value between the BRET value when the carrier is at rest (Maximal distance between Donor and Acceptor) and the BRET value when it is closed (Shortest distance between Donor and Acceptor)
A wide range of concentrations of each of the tested compounds was used from 1 nM to 100 μM.

[2] = Plasma pharmacokinetics in mice after single oral 50 mg/kg M-III; format: in vivo; conditions: male C57BL/6 mice
Protocol: (§1) To the plasma pharmacokinetics of 5-[[4-[2-[5-acetylpyridin-2-yl]ethoxy]phenyl]methyl]-1,3-thiazolidine-2,4-dione (M-III) and 5-[[4-[2-[5-(1-hydroxyethyl)pyridin-2-yl]ethoxy]phenyl]methyl]-1,3-thiazolidine-2,4-dione (M-IV) were determined in male C57BL/6 mice following a single oral (50 mg/kg) dose administration of M-III.
Nine animals were administered orally with suspension formulation of M-III in 0.1% Tween 80 and 99.9% NaCMC in water (0.5% w/v) at 50 mg/kg dose. The dosing volume administered was 10 mL/kg. The blood samples were collected from set of three mice at each time point in labeled micro centrifuge tube containing K2EDTA solution as anticoagulant at Pre-dose, 0.25, 0.5, 1, 2, 4, 8, 12 and 24 hr. Plasma samples were separated by centrifugation of whole blood and stored below −70±10° C. until bioanalysis. All samples were processed for analysis by protein precipitation using acetonitrile and analyzed with fit-for-purpose LC-MS/MS method (LLOQ=2.46 ng/mL for M-III and 2.49 ng/mL for M-IV). Pharmacokinetic parameters were calculated using the non-compartmental analysis tool of Phoenix WinNonlin® (Version 6.3).

[3] = Plasma pharmacokinetics in mice after single oral 4.5 mg/kg M-III or MIN-102; format: in vivo, male C57BL/6 mice
Protocol: as §1, with “The” for “To the”, “(4.5” for “(50”, “dose” for “dose administration”, “either M-III or MIN-102 (5-[[4-[2-[5-(1-hydroxyethyl)pyridin-2-yl]ethoxy]phenyl]methyl]-1,3-thiazolidine-2,4-dione hydrochloride).” for “M-III.”
Animals were administered orally with a suspension formulation of either M-III or MIN-102 in 0.1% Tween 80 and 99.9% NaCMC in water (0.5% w/v) at 4.5 mg/kg dose. The blood samples were collected from a set of three mice at each time point in labeled micro centrifuge tubes containing K2EDTA solution as anticoagulant at Pre-dose, 0.25, 0.5, 1, 2, 4, 8, 12 and 24 hr. Plasma samples were separated by centrifugation of whole blood and stored below −70±10° C. until bioanalysis. All samples were processed for analysis by protein precipitation using acetonitrile and analyzed with fit-for-purpose LC-MS/MS method (LLOQ=2.46 ng/mL for M-III and 2.49 ng/mL for M-IV). Pharmacokinetic parameters were calculated using the non-compartmental analysis tool of Phoenix WinNonlin® (Version 6.3).

[4] = Plasma pharmacokinetics in rats after single oral 10 mg/kg M-III or MIN-102; format: in vivo, male Sprague Dawley rats
Protocol: (§2) The plasma pharmacokinetics of 5-[[4-[2-[5-acetylpyridin-2-yl]ethoxy]phenyl]methyl]-1,3-thiazolidine-2,4-dione (M-III; M3) and 5-[[4-[2-[5-(1-hydroxyethyl)pyridin-2-yl]ethoxy]phenyl]methyl]-1,3-thiazolidine-2,4-dione (M-IV; M4) were determined in male Sprague Dawley following a single oral (10 mg/kg) dose administration of either M-III or MIN-102.
Six animals were dosed orally with a suspension formulation of either M-III or MIN-102 in 0.1% Tween 80 and 99.9% CMC (0.5% w/v solution in RO water) at 10 mg/kg.
The dosing volume administered was 10 mL/kg. Blood samples (approximately 60 μL) were collected from retro-orbital plexus of three rats at 0.08, 0.25, 0.5, 1, 2, 4, 8, 12 and 24 hr (IV) and at predose, 0.25, 0.5, 1, 2, 4, 8, 12 and 24 hr. Samples were collected into labeled micro-tubes, containing K2EDTA solution (20% K2EDTA solution) as an anticoagulant. Plasma was immediately harvested from the blood by centrifugation at 4000 rpm for 10 min at 4±2° C. and stored below −70° C. until bioanalysis.
Concentrations of M-III and M-IV in rat plasma samples were determined by fit-for-purpose LC-MS/MS method. Non-Compartmental-Analysis module in Phoenix WinNonlin® (Version 6.3) was used to assess the pharmacokinetic parameters. Peak plasma concentrations (Cax) and time for the peak plasma concentrations (Tmax) were the observed values. The areas under the concentration time curve (AUClast and AUCinf) were calculated by linear trapezoidal rule.

[5] = Plasma pharmacokinetics in dogs after single oral 3 mg/kg M3 or MIN-102; format: in vivo, male Beagle dogs
Protocol: as §2, with “male Beagle dogs” for “male Sprague Dawley”, “oral (3” for “oral (10”, “either M3” for “either M-III”
Six animals were dosed orally with a suspension formulation of either M-III or MIN-102 in 0.1% Tween 80 and 99.9% CMC (aqueous carboxymethylcellulose 0.5% w/v solution in RO water) at 3 mg/kg. Blood samples (0.5 ml) were collected from the saphenous or cephalic or jugular veins of dogs at predose, 0.5, 1, 2, 4, 6 and 24 hr. Samples were collected into labeled micro-tubes, containing K2EDTA solution (20% K2EDTA solution) as an anticoagulant. Plasma was immediately harvested from the blood by centrifugation at 4000 rpm for 10 min and stored below −70° C. until bioanalysis.
Concentrations of M3 and M-IV in dog plasma samples were determined by fit-for-purpose LC-MS/MS method. Non-Compartmental-Analysis module in Phoenix WinNonlin® (Version 6.3) was used to assess the pharmacokinetic parameters. Peak plasma concentrations (Cmax) and time for the peak plasma concentrations (Tmax) were the […] observed values. The areas under the concentration time curve (AUClast and AUCinf) were calculated by linear trapezoidal rule.

[6] = as described in WO 2015/150476 A1; cited from earlier work

| Compound | pIC50 [1] | share of total exposure (AUC) [2] | share of total exposure (AUC) ([3]; after single oral 4.5 mg/kg M-III, male mice) | share of total exposure (AUC) ([3]; after single oral 4.5 mg/kg MIN-102, male mice) | share of total exposure (AUC) ([4]; after single oral 10 mg/kg M-III, male rats) | share of total exposure (AUC) ([4]; after single oral 10 mg/kg MIN-102, male rats) | share of total exposure (AUC) ([5]; after single oral 3 mg/kg M3, male dogs) | share of total exposure (AUC) ([5]; after single oral 3 mg/kg MIN-102, male dogs) | blood-brain-barrier penetration [6] |
| --- | --- | --- | --- | --- | --- | --- | --- | --- | --- |
| CCc1ccc(CCOc2ccc(CC3SC(=O)NC3=O)cc2)nc1 (stereo not shown) [Pioglitazone] | < 4.00 | – | – | – | – | – | – | – | – |
| CN(CCOc1ccc(C[C@@H]2SC(=O)NC2=O)cc1)c1ccccn1 [Rosiglitazone] | 5.70 | – | – | – | – | – | – | – | – |
| CC(O)c1ccc(CCOc2ccc(CC3SC(=O)NC3=O)cc2)nc1 (stereo not shown) [M-IV, 5-[[4-[2-[5-(1-hydroxyethyl)pyridin-2-yl]ethoxy]phenyl]methyl]-1,3-thiazolidine-2,4-dione] | – | about 75% | ~75% | about 62% | ~48% | about 58% | ~84% | about 92% | penetrates the BBB |
